The record followed here is patent US12590091B2, “1H-pyrrolo[3,2-C]pyridine and 1H-pyrrolo[2,3-C]pyridine derivatives as TLR9 inhibitors for the treatment of fibrosis” (BRISTOL-MYERS SQUIBB COMPANY, priority 2020, dated 2026).

The structures appear in SMILES notation.

Usually IC50 stands for the concentration that inhibits the measured activity by half. Low values mean greater potency in that assay, high ones weaker potency in that assay.

The target of one test is T1, human TLR9 (Homo sapiens, UniProt Q9NR96).
T1 construct: host or cells: HEK-Blue cells
T1 sequence (Q9NR96 26-1032): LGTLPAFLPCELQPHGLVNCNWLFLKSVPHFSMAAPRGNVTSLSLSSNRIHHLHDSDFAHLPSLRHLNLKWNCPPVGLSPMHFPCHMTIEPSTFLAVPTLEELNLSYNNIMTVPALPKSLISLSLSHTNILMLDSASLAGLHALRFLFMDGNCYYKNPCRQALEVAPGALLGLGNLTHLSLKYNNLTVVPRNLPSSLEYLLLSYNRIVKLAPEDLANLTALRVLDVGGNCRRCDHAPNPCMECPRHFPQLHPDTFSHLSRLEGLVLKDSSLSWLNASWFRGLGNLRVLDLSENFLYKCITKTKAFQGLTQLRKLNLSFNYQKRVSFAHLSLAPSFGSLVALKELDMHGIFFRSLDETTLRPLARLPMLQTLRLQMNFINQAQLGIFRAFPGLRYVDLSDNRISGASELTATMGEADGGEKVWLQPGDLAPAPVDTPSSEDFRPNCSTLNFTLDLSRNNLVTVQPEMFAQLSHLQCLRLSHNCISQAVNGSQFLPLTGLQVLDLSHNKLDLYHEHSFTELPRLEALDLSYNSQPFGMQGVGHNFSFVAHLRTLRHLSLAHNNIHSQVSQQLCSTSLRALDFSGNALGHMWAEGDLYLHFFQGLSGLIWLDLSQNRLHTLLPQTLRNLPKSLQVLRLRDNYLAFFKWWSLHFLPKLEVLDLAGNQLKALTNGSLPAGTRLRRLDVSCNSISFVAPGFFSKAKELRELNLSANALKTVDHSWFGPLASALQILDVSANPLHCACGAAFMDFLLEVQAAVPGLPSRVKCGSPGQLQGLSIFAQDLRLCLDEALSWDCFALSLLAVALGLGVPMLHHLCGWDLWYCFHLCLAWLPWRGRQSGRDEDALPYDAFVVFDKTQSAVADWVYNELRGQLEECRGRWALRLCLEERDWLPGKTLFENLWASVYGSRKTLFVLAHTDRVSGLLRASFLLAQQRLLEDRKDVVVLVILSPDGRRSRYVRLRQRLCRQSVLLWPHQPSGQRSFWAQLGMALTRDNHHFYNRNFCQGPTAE
The test is described as follows: TLR9 inhibition reporter assay (HEK-Blue cells, SEAP reporter). The test is classed as cell-based. The settings on record: HEK-Blue cells overexpressing human TLR9, stimulated with ODN2006 5 nM, 22 hour incubation. In short, it runs like this:
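Compound dose-response (0.05 nM–50 μM final) on agonist-stimulated human TLR9 HEK-Blue cells, 25,000/well, incubated 22 h at 37 °C, 5% CO2. Readout was secreted alkaline phosphatase under an IFN-β minimal promoter with NF-κB/AP-1 sites; inhibition expressed relative to DMSO and reference-inhibitor controls.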
In general terms: A reporter such as luciferase makes a cellular process visible.

For the next test, the target named is T2, human TLR8 (Homo sapiens, UniProt Q9NR97).
T2 construct: host or cells: HEK-Blue cells
T2 sequence (Q9NR97 27-1041): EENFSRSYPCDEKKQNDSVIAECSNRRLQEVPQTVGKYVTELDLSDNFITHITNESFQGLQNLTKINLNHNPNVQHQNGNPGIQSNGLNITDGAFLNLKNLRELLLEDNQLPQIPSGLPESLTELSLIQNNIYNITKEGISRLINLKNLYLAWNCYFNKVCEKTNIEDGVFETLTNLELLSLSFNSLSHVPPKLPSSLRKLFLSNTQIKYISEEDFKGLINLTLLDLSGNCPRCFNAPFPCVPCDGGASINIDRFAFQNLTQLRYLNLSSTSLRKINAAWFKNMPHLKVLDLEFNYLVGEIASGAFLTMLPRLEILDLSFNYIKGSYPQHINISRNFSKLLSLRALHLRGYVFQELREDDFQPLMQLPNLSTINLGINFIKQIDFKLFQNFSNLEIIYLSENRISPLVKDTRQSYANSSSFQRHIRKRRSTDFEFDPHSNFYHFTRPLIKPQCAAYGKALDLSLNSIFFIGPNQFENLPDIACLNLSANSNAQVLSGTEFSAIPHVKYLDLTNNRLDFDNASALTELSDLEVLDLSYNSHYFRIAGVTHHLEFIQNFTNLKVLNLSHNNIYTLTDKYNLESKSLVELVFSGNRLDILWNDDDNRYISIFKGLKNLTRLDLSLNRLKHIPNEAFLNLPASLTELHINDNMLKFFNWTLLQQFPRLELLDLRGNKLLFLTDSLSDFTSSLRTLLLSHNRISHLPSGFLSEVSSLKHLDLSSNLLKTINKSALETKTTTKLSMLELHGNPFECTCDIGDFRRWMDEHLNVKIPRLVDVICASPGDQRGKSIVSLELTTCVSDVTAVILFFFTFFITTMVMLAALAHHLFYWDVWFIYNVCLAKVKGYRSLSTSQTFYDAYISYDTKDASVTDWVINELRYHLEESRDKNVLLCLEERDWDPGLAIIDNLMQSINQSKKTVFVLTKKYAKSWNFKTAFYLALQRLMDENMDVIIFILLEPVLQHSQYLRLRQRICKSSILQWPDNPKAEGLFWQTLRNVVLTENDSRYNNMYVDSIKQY
The test is described as follows: TLR8 inhibition reporter assay (HEK-Blue cells, SEAP reporter). The test is classed as cell-based. The settings on record: HEK-Blue cells overexpressing human TLR8, stimulated with R848 15.9 μM, 22 hour incubation. The method, then:
TLR7/8/9 Inhibition Reporter Assays
HEK-Blue™-cells (Invivogen) overexpressing human TLR7, TLR8 or TLR9 receptors were used for screening inhibitors of these receptors using an inducible SEAP (secreted embryonic alkaline phosphatase) reporter gene under the control of the IFN-β minimal promoter fused to five NF-κB and AP-1-binding sites. Briefly, cells are seeded into Greiner 384 well plates (15000 cells per well for TLR7, 20,000 for TLR8 and 25,000 for TLR9) and then treated with test compounds in DMSO to yield a final dose response concentration range of 0.05 nM-50 μM. After a 30 minute compound pre-treatment at room temperature, the cells are then stimulated with a TLR7 ligand (gardiquimod at a final concentration of 7.5 μM), TLR8 ligand (R848 at a final concentration of 15.9 μM) or TLR9 ligand (ODN2006 at a final concentration of 5 nM) to activate NF-κB and AP-1 which induce the production of SEAP. After a 22 hour incubation at 37° C., 5% CO2, SEAP levels are determined with the addition of HEK-Blue™ Detection reagent (Invivogen), a cell culture medium that allows for detection of SEAP, according to manufacturer's specifications. The percent inhibition is determined as the % reduction in the HEK-Blue signal present in wells treated with agonist plus DMSO alone compared to wells treated with a known inhibitor.

As for `CCOC(=O)N1CCC(N2CCC(c3cc4c(-c5ccc(OC)c(OC)c5)c(C)n(C)c4cn3)CC2)CC1` [Example 20, ethyl 4-(3-(3,4-dimethoxyphenyl)-1,2-dimethyl-1H-pyrrolo[2,3-c]pyridin-5-yl)-[1,4′-bipiperidine]-1′-carboxylate], the IC50 on human TLR9 is 153 nM; against human TLR8 it was above 50000 nM.
In the case of `COc1ccc(-c2c(C)[nH]c3cnc(C4CCN(C(=O)CN5CCCC5)CC4)cc23)cc1OC` [Example 21, 1-(4-(3-(3,4-dimethoxyphenyl)-2-methyl-1H-pyrrolo[2,3-c]pyridin-5-yl)piperidin-1-yl)-2-(pyrrolidin-1-yl)ethan-1-one], the IC50 at human TLR9 is 603 nM; at human TLR8, above 50000 nM.
The like results for `COc1ccc(-c2c(C)[nH]c3cnc(C4CCN(C(=O)CN(C)C)CC4)cc23)cc1OC` [Example 22, 1-(4-(3-(3,4-dimethoxyphenyl)-2-methyl-1H-pyrrolo[2,3-c]pyridin-5-yl)piperidin-1-yl)-2-(dimethylamino)ethan-1-one] were, in that order, 1570 nM and above 50000 nM.
For `COc1ccc(-c2c(C)[nH]c3cnc(C4CCN(C(=O)CCN5CCCC5)CC4)cc23)cc1OC` [Example 23, 1-(4-(3-(3,4-dimethoxyphenyl)-2-methyl-1H-pyrrolo[2,3-c]pyridin-5-yl)piperidin-1-yl)-3-(pyrrolidin-1-yl)propan-1-one], the IC50 is 1110 nM at human TLR9 and above 50000 nM against human TLR8.
Consider `COc1ccc(-c2cc3cnc(-c4ccc(N5CCN(C(C)C)CC5)cc4)cc3n2C)cc1OC` [Example 24, 2-(3,4-dimethoxyphenyl)-6-(4-(4-isopropylpiperazin-1-yl)phenyl)-1-methyl-1H-pyrrolo[3,2-c]pyridine], for which the IC50 against human TLR9 is 59 nM; on human TLR8, 3800 nM.
The like results for `COc1ccc(-c2cc3cnc(C4CCN(C(=O)CN5CCCCC5)CC4)cc3n2C)cc1OC` [Example 25, 1-(4-(2-(3,4-dimethoxyphenyl)-1-methyl-1H-pyrrolo[3,2-c]pyridin-6-yl)piperidin-1-yl)-2-(piperidin-1-yl)ethan-1-one] were, in that order, 197 nM and above 50000 nM.
As to `COc1ccc(-c2cc3cnc(C4CCN(C5CCN(C(=O)c6ccccc6)CC5)CC4)cc3n2C)cc1OC` [Example 26, (4-(2-(3,4-dimethoxyphenyl)-1-methyl-1H-pyrrolo[3,2-c]pyridin-6-yl)-[1,4′-bipiperidin]-1′-yl)(phenyl)methanone], the IC50 is 9 nM on human TLR9 and 1200 nM at human TLR8.
`COc1ccc(-c2cc3cnc(-c4ccc(N5CCN(C)CC5)cc4)cc3n2C)cc1OC` [Example 27, 2-(3,4-dimethoxyphenyl)-1-methyl-6-(4-(4-methylpiperazin-1-yl)phenyl)-1H-pyrrolo[3,2-c]pyridine]: the half-maximal inhibitory concentration (IC50) against human TLR9 was 45 nM; against human TLR8 it was 1500 nM.
As to `COc1ccc(-c2cc3cnc(C4CCN(Cc5ccc(C(F)(F)F)nc5)CC4)cc3n2C)cc1OC` [Example 28, 2-(3,4-dimethoxyphenyl)-1-methyl-6-(1-((6-(trifluoromethyl)pyridin-3-yl)methyl)piperidin-4-yl)-1H-pyrrolo[3,2-c]pyridine], the IC50 at human TLR9 turned out to be 269 nM; against human TLR8, 20500 nM.
In the case of `COc1ccc(-c2cc3cnc(-c4ccc(N5CCN(C(=O)c6ccccc6)CC5)cc4)cc3n2C)cc1OC` [Example 29, (4-(4-(2-(3,4-dimethoxyphenyl)-1-methyl-1H-pyrrolo[3,2-c]pyridin-6-yl)phenyl)piperazin-1-yl)(phenyl)methanone], the IC50 against human TLR9 worked out at 399 nM; at human TLR8 it was 8200 nM.
For the compound `COc1ccc(-c2cc3cnc(-c4ccc(N5CCN(C(C)C)CC5)nc4)cc3n2C)cc1OC` [Example 31, 2-(3,4-dimethoxyphenyl)-6-(6-(4-isopropylpiperazin-1-yl)pyridin-3-yl)-1-methyl-1H-pyrrolo[3,2-c]pyridine], the IC50 at human TLR9 was determined as 72 nM; at human TLR8 it was 1700 nM.
Taken in the same sequence, the figures for `COc1ccc(-c2c(C)n(C)c3cnc(-c4ccc(N5CCN(C(C)C)CC5)cc4)cc23)cc1OC` [Example 32, 3-(3,4-dimethoxyphenyl)-5-(4-(4-isopropylpiperazin-1-yl)phenyl)-1,2-dimethyl-1H-pyrrolo[2,3-c]pyridine] were 170 nM and above 50000 nM.
The like results for `COc1ccc(-c2c(C)n(C)c3cnc(-c4ccc(N5CCN(CCC(C)(C)O)CC5)cc4)cc23)cc1OC` [Example 33, 4-(4-(4-(3-(3,4-dimethoxyphenyl)-1,2-dimethyl-1H-pyrrolo[2,3-c]pyridin-5-yl)phenyl)piperazin-1-yl)-2-methylbutan-2-ol] were, in that order, 27 nM and above 50000 nM.
As to `Cc1nc(-c2ccc(N3CCN(CC(C)C)CC3)cc2)cc2c1cc(-c1ccc(S(C)(=O)=O)cc1)n2C` [Example 34, 6-(4-(4-isobutylpiperazin-1-yl)phenyl)-1,4-dimethyl-2-(4-(methylsulfonyl)phenyl)-1H-pyrrolo[3,2-c]pyridine], the concentration for half-maximal inhibition (IC50) against human TLR9 is 10 nM; at human TLR8, above 50000 nM.
As to `Cc1nc(-c2ccc(N3CCN(C4CCOCC4)CC3)cc2)cc2c1cc(-c1ccc(S(C)(=O)=O)cc1)n2C` [Example 35, 1,4-dimethyl-2-(4-(methylsulfonyl)phenyl)-6-(4-(4-(tetrahydro-2H-pyran-4-yl)piperazin-1-yl)phenyl)-1H-pyrrolo[3,2-c]pyridine], the half-inhibitory concentration (IC50) against human TLR9 was 710 nM; at human TLR8 it was above 25000 nM.
For `Cc1nc(-c2ccc(N3CCN(CCCO)CC3)cc2)cc2c1cc(-c1ccc(S(C)(=O)=O)cc1)n2C` [Example 36, 3-(4-(4-(1,4-dimethyl-2-(4-(methylsulfonyl)phenyl)-1H-pyrrolo[3,2-c]pyridin-6-yl)phenyl)piperazin-1-yl)propan-1-ol], the IC50 was 59 nM on human TLR9 and above 25000 nM against human TLR8.
